Results from BindingDB's records for doi:10.1021/acs.jmedchem.7b00141 (National Institute of Diabetes and Digestive and Kidney …, 2017).

Assays:
[1] = molecular target: Sodium-dependent noradrenaline transporter (Homo sapiens, UniProt P23975); assay: ChEBML_1661745
Procedure: Inhibition of [3H]mazindol binding to recombinant human NET expressed in HEK293 cell membranes preincubated for 10 mins followed by radioligand addition measured after 90 mins by micro beta scintillation counting analysis

[2] = molecular target: T1, Sodium-dependent serotonin transporter (Homo sapiens, UniProt P31645); assay: Inhibition of [3H]mazindol binding to recombinant human SERT expressed in HEK293 cell membranes preincubated for 10 mins followed by radioligand addition measured after 90 mins by micro beta scintillation counting analysis
[3] = molecular target: T1, Sodium-dependent serotonin transporter; assay: Inhibition of [125I]RTI-55 binding to recombinant human SERT expressed in HEK293 cell membranes preincubated for 10 mins followed by radioligand addition measured after 90 mins by micro beta scintillation counting analysis

T1 sequence (P31645 whole entry): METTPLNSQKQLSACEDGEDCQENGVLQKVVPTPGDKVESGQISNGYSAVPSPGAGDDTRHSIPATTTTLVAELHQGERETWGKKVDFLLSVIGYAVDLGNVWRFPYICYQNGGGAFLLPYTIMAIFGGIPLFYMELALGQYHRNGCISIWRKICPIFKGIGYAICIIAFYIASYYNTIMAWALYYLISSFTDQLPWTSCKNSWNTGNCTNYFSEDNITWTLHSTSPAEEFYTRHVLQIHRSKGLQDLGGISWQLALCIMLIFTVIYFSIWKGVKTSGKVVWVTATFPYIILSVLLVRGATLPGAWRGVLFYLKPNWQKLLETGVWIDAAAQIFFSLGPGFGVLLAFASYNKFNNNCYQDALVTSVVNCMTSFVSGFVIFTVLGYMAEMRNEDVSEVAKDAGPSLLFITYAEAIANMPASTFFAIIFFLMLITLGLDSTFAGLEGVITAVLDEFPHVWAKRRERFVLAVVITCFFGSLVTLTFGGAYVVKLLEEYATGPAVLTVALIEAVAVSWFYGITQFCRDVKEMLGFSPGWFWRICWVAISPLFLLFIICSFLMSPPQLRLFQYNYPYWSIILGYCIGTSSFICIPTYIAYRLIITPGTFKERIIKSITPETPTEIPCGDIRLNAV
Chain of Sodium-dependent noradrenaline transporter (P23975 whole entry): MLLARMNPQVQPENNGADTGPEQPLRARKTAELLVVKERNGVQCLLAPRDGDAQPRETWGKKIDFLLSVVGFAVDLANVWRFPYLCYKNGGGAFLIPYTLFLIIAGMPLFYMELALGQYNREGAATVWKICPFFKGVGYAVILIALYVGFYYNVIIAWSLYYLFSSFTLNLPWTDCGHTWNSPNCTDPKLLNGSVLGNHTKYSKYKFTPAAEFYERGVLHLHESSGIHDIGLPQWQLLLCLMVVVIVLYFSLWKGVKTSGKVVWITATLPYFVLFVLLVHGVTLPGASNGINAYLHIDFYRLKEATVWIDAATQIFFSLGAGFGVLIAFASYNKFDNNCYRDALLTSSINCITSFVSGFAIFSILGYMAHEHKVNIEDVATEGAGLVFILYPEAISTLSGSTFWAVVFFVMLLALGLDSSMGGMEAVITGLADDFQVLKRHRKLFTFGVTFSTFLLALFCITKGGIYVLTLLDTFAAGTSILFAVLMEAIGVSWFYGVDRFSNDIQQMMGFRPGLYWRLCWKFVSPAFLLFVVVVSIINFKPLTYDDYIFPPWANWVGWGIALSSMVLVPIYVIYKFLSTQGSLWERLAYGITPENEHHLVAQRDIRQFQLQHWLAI

## COC(=O)[C@H]1[C@@H](c2ccc([125I])cc2)CC2CC[C@H]1N2C
[1]
  Ki: 0.07 µM
[2]
  Ki: 0.0013 µM

## O[C@]1(c2ccc(Cl)cc2)c2ccccc2C2=NCCN21 [Mazanor]
[2]
  Ki: 0.045 µM
[3]
  Ki: 0.136 µM
